Source: patent publication US4289777A, “Quinolonecarboxylic acid derivatives and pharmaceutical preparations thereof for treatment of an allergic disease of the respiratory tract” (Schering, Aktiengesellschaft, priority 1978, dated 1981)
≈ marks a conversion by molar mass, not a printed value. Where a name gives a salt, the structure may show the parent alone. Read-outs that look alike come from different tables or passages of the source.

Legend:
[1] = tested on: mast cells of the lungs; conditions: upon inhalation; J. Med. Chem. 15: 583 [1972]; cited from earlier work
[2] = tested on: passive cutaneous anaphylaxis in rats (PCA), mediator liberation; test: passive cutaneous anaphylaxis in rats (PCA), inhibition of allergic reaction; format: in vivo; conditions: iv, rat PCA, i.v.
Experimental: For this purpose, rats are passively sensitized by the intracutaneous injection of various dilutions (1:8 and 1:16) of a standardized IgE-containing hyperimmune serum. After 48 hours, the compound to be tested, dissolved as the sodium salt in a physiological NaCl solution, and ovalbumin as the allergen, combined with a dye to better measure the local allergic reaction, are administered intravenously.
The measurement determines the inhibition of the allergic reaction in the presence of the test compound as compared with the allergic reaction without the inhibiting agent.

[3] = tested on: Staphylococcus aureus 30-8; test: in vitro series dilution test, antibacterial effect; format: cell-based; conditions: 308; Staphylococcus aureus 30-8, in vitro; read-out: Minimum Inhibitory Concentration
Source text: (§1) The antibacterial effect can be measured in vitro in a series dilution test.

[4] = tested on: Staphylococcus aureus 30-64; test: as above; format: cell-based; conditions: 3064; Staphylococcus aureus 30-64, in vitro; read-out: Minimum Inhibitory Concentration
Source text: as §1

[5] = tested on: Diplococcus pneumoniae; test: as above; format: cell-based; conditions: Streptococcus pneumoniae, read-out: Minimum Inhibitory Concentration
Source text: as §1

[6] = tested on: Staphylococcus aureus 30-3; test: as above; format: cell-based; conditions: 303; Staphylococcus aureus 30-3, in vitro; read-out: Minimum Inhibitory Concentration
Source text: as §1

[7] = tested on: Staphylococcus aureus 30-109; test: as above; format: cell-based; conditions: 30109; Staphylococcus aureus 30-109, in vitro; read-out: Minimum Inhibitory Concentration
Source text: as §1

[8] = tested on: Staphylococcus aureus 30-2; test: as above; format: cell-based; conditions: 302; Staphylococcus aureus 30-2, in vitro; read-out: Minimum Inhibitory Concentration
Source text: as §1

[9] = tested on: Staphylococcus aureus 30-53; test: as above; format: cell-based; conditions: 3053; Staphylococcus aureus 30-53, in vitro; read-out: Minimum Inhibitory Concentration
Source text: as §1

[10] = tested on: Staphylococcus aureus 30-107; test: as above; format: cell-based; conditions: 30107; Staphylococcus aureus 30-107, in vitro; read-out: Minimum Inhibitory Concentration
Source text: as §1

[11] = tested on: carrageenin test; test: carrageenin test, antiinflammatory effect; format: in vivo
Source text: The inflammation-inhibitory effect can be measured by the carrageenin test (Winter, C. A., E. A. Risley and G. W. Nuss, Proc. Soc. Exp. Biol. Med. 111: 544-547 [1962]).

[12] = tested on: Diplococcus pneumoniae and a series of strains of Staphylococcus aureus; test: in vitro series dilution test, antibacterial effect (summary over all bacteria); format: cell-based; conditions: in words
Source text: as §1

[13] = IgE serum dilution 1:8, dissolved as the sodium salt, read-out: % Inhibition, IgE 1:8
[14] = IgE serum dilution 1:16, dissolved as the sodium salt, read-out: % Inhibition, IgE 1:16

Row | Compound | inhibition at 5 mg/kg [2, 13] [%] | inhibition at 5 mg/kg [2, 14] [%] | MIC [3] [µg/mL] | MIC [4] [µg/mL] | MIC [5] [µg/mL] | MIC [6] [µg/mL] | MIC [7] [µg/mL] | MIC [8] [µg/mL] | MIC [9] [µg/mL] | MIC [10] [µg/mL] | inhibition at 10 mg/kg [2, 13] [%] | inhibition at 10 mg/kg [2, 14] [%] | other results
1 | O=C(O)c1cc(=O)c2c(OCC(O)COc3cccc4oc(C(=O)O)cc(=O)c34)cccc2o1 [sodium salt of cromoglycic acid] |  |  |  |  |  |  |  |  |  |  |  |  | inhibition of liberation of mediators triggering bronchoconstriction, such as histamine and SRS-A [1]: inhibit the liberation of mediators triggering bronchoconstriction
2 | Cn1cc(C(=O)O)c(=O)c2ccc(OCC(O)COc3ccc4c(=O)c(C(=O)O)cn(C)c4c3)cc21 [1,3-Bis(3-carboxy-1,4-dihydro-1-methyl-4-oxo-7-quinolyloxy)-2-propanol] | 62 | 69 |  |  |  |  |  |  |  |  |  |  | 
3 | CCn1cc(C(=O)O)c(=O)c2ccc(OCC(O)COc3ccc4c(=O)c(C(=O)O)cn(CC)c4c3)cc21 [1,3-Bis(1-ethyl-3-carboxy-1,4-dihydro-4-oxo-7-quinolyloxy)-2-propanol] | 59 | 69 | 12.5 (≈ 23.9 µM) | 50 (≈ 95.7 µM) | 50 (≈ 95.7 µM) | 12.5 (≈ 23.9 µM) | 25 (≈ 47.8 µM) | 25 (≈ 47.8 µM) | 50 (≈ 95.7 µM) | 50 (≈ 95.7 µM) | 84 | 90 | 
4 | O=C(O)c1cc(=O)c2c(OCC(O)COc3cccc4oc(C(=O)O)cc(=O)c34)cccc2o1 [Cromoglycic Acid, reference compound] | 63 | 67 | > 100 | > 100 | > 100 | > 100 | > 100 | > 100 | > 100 | > 100 | 60 | 84 | antiinflammatory activity ([11]; in words): only an extremely weak efficacy, or even no corresponding efficacy at all; inhibition at 10 mg/kg ([11]; iv, 10 mg./kg.): 10%; inhibition at 75 mg/kg ([11]; po, 75 mg./kg.): 0%; antibacterial activity [12]: ineffective against all bacteria investigated
5 | CCCCn1cc(C(=O)O)c(=O)c2ccc(OCC(O)COc3ccc4c(=O)c(C(=O)O)cn(CCCC)c4c3)cc21 [1,3-Bis(1-butyl-3-carboxy-1,4-dihydro-4-oxo-7-quinolyloxy)-2-propanol] |  |  |  |  |  |  |  |  |  |  | 71 | 85 | 
6 | 1,3-Bis(1-ethoxy-3-carboxy-1,4-dihydro-4-oxo-7-quinolyloxy)-2-propanol |  |  |  |  |  |  |  |  |  |  |  |  | % Inhibition ([11]; i.v., 10 mg./kg.): 44%; % Inhibition ([11]; p.o., 75 mg./kg.): 28%
